Where “and” joins values, the source holds several entries; their conditions need not be identical. Identical values can stand only once.
Assays:
[1] = molecular target: catalytic subunit of pertussis toxin (PTS1) (Bordetella pertussis, UniProt P04977); format: binding, B. pertussis; conditions: PTS1, 100 μM PBA
[2] = system: CT intoxication of CHO cells; format: cell-based
[3] = system: CTA1 dislocation from the ER to the cytosol of HeLa cells; format: cell-based
[4] = molecular target: catalytic A1 polypeptide of cholera toxin (CTA1) (Vibrio cholerae serotype O1, UniProt P01555); format: binding
[5] = in vivo, po; cited from earlier work
[6] = molecular target: cell-binding B subunit of CT (Vibrio cholerae serotype O1, UniProt P01556)
Shiga toxin = format: cell-based
CT = conditions: in vivo
20S proteasome = format: biochemical
[7] = system: forskolin-stimulated adenylate cyclase activity; format: cell-based
thermolysin = thermolysin (Bacillus thermoproteolyticus, UniProt P00800); format: biochemical
His6-tagged CTA1 = His6-tagged CTA1 (Vibrio cholerae serotype O1, UniProt P01555); format: binding
[8] = system: CTA1 secretion from intoxicated HeLa cells; format: cell-based
[9] = cited from earlier work
[10] = molecular target: interaction between GRP94 and CTA1 (Homo sapiens, UniProt P14625); format: binding
interaction between GRP94 and CTA1, sequence (P14625 22-803 limits assumed): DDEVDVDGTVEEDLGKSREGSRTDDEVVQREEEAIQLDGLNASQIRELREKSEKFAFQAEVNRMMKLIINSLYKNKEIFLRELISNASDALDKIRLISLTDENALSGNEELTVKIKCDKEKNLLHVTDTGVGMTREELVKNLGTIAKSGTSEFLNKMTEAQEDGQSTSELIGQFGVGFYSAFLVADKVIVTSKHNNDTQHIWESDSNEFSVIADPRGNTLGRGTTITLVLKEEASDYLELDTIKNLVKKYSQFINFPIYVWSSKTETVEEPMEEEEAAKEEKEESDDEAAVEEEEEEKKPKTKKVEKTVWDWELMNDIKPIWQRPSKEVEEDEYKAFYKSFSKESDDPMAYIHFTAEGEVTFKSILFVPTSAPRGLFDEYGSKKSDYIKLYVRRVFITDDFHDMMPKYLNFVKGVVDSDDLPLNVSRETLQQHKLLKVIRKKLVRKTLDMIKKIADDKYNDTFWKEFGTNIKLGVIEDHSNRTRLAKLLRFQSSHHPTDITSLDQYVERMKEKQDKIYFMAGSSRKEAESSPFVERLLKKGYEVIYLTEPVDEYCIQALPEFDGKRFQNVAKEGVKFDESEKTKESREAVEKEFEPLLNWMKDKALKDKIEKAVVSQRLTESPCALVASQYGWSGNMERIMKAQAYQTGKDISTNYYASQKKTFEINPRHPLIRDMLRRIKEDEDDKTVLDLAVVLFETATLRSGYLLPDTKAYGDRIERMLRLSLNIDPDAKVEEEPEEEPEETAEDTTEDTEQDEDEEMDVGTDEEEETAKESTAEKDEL

catalytic A1 polypeptide of cholera toxin (CTA1), sequence (P01555 19-212 limits assumed): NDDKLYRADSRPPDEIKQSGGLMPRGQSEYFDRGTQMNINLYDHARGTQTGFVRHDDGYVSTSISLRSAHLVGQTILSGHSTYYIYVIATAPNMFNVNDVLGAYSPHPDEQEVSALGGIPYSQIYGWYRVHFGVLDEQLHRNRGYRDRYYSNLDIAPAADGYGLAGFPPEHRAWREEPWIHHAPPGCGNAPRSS
His6-tagged CTA1, sequence (P01555 19-212 limits assumed): as above
catalytic subunit of pertussis toxin (PTS1), sequence (P04977 35-269 limits assumed): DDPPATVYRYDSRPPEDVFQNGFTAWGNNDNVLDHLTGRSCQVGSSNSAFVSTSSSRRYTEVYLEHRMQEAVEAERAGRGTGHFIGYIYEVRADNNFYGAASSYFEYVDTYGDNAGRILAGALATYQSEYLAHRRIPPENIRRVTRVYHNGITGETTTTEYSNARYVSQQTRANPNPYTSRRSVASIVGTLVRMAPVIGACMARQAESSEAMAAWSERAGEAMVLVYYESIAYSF
cell-binding B subunit of CT, sequence (P01556 22-124 limits assumed): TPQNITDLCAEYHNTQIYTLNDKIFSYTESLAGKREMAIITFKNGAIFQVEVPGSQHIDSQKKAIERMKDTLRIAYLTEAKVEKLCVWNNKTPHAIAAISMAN
thermolysin, sequence (P00800 233-548): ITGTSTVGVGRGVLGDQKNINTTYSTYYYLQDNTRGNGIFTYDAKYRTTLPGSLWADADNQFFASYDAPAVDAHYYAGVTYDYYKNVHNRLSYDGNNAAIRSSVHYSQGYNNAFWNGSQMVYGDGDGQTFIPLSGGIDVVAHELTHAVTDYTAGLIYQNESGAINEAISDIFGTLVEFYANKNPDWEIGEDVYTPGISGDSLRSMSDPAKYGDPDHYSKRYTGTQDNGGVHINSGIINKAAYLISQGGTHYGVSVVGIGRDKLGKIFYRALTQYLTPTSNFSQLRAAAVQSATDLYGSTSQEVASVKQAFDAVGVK

For O=C([O-])CCCc1ccccc1.[Na+] [PBA, sodium 4-phenylbutyrate], the “transition temperature Far UV” value [1] was 33.0 °C, the “transition temperature Near UV” value [1] was 36.0 °C and the “CT activity against cultured cells” value [2] was “blocks CT activity against cultured cells in a dose-dependent manner”. For the same compound, the “concentration effective against CT intoxication of cultured cells” value [2] was 10 to 100 µM, the “cytosolic pool of CTA1 by SPR” value [3] was “less CTA1 was found in the cytosol” and the “Melting temperature (Tm) Fluorescence” value [4] was 37.5 °C and 38.5 °C and 41.0 °C. The “Melting temperature (Tm) Near UV” value [4] was 33.0 °C and 35.0 °C, the PBA serum levels [5] was 600-1,700 uM and the “binding to cell-binding B subunit of CT” value [6] was “does not bind”. The “protection against Shiga toxin” value (Shiga toxin) was “do not protect cultured cells against Shiga toxin” and the “CT activity in the ileal loop test system” value (CT) was “blocks CT activity in the ileal loop test system”.
With OCC(O)CO [glycerol] the “a-casein degradation by the 20S proteasome” value (20S proteasome) was “did not inhibit a-casein degradation by the 20S proteasome”, the “CT concentration for 50% maximal response” value [2] was 35 ng of CT/ml and the “CT intoxication (cAMP response)” value [2] was “resistant to CT”. The “cAMP relative to cells treated with forskolin alone” value [7] was 105%, the “thermolysin-mediated proteolysis of a-casein” value (thermolysin) was “did not prevent the thermolysin-mediated proteolysis of a-casein” and the “CTA1 secondary structure Tm” value (His6-tagged CTA1) was 39±0.5 °C. The “CTA1 tertiary structure transition temperature (Tm)” value (His6-tagged CTA1) was 39.5±1 °C, the “initial secondary structure retained at 37° C.” value (His6-tagged CTA1) was ~60% and the “initial tertiary structure retained at 37° C.” value (His6-tagged CTA1) was 58%. For the same compound, the “cytosolic pool of CTA1 by SPR” value [3] was “failed to generate a positive cytosolic signal for CTA1”, the “cytosolic pool of CTA1 by SPR, time course” value [3] was “could not be detected” and the “reduction in cytosolic CTA1” value [3] was 3 fold and 5 fold. For the same compound, the “total cellular pool of CTA1 present in the cytosolic fraction” value [3] was 7±4%, the “CTA1 secreted into medium versus untreated cells” value [8] was “twice as much CTA1 as the untreated control cells” and the “t1/2 of equilibration across the plasma membrane” value [9] was 5 min.
With N-ethylcarboxamidoadenosine [NECA] the “effect on GRP94 binding to CTA1” value [10] was “blocked by both GA and NECA”, the “CT intoxication (cAMP response)” value [2] was “same response to CT as the untreated cells” and the “cytosolic CTA1 by Western blot” value [3] was “unaffected by NECA treatment”. The “cytosolic pool of CTA1 by SPR” value [3] was “response comparable to the response from cells intoxicated in the absence of drug treatment”.
In the case of brefeldin A [BfA], the “cytosolic pool of CTA1 by SPR” value [3] is reported as “No signal” and the “CTA1 in the medium by SPR” value [8] is reported as “could not detect an appreciable amount of CTA1 in the medium”.
